Like-named read-outs stand apart in the source and are kept apart here.
Tests used:
H1975 = experiment: Blocking of sanguinarine-induced apoptosis and EGFR degradation in H1975; format: cell-based; details: H1975, 24 hrs, flow cytometry
Source text: The fold change of treated group is normalized to untreated group. Results are expressed as mean±S.E.M. The data represent mean±S.E.M. of three independent experiments. (n=3, ***p<0.001). In FIG. 6B, the up-regulation of NOX 3 by sanguinarine is also confirmed on protein level, which is corresponding to the degradation of EGFR. […] One of representative data is shown (n=3). FIG. 6D uses real-time PCR to detect the RNA expression level of Msr A in five NSCLC cell lines. The expression level of Msr in other 5 cell lines is normalized to that of BEAS-2B cell line. The data represent mean±S.E.M. of three independent experiments (n=3, *p<0.05, **p<0.01, ***p<0.001). The result in this example supports that NADPH oxidase and methionine sulfoxide reductase are key enzymes involved in the ROS generation induced by […] in gefitinib-resistant NSCLC. Schematic diagram of how methionine (Met) is oxidized by NADPH oxidase (ROS) and reduced by methionine sulfoxide reductase is shown in FIG. 5. FIG. 7 is a cell model further illustrating how sanguinarine and H2O2 act on the signaling pathway of inducing EGFR degradation in H1975 cells, and thereby leading to apoptosis of the cells. […]

H2228 (EML4-ALK) [1] = details: cited from earlier work
[2] = tested on: total EGFR, EGFR (pY845) and EGFR (pY1068) in H1975 cells; experiment: Western blot of EGFR markers in H1975 cells; format: cell-based; details: 25 μM H2O2
Source text: (§1) FIG. 2A is a control. Among the four cell lines, only H1975 cells have additional T790M mutation on EGFR. […] Compared with sanguinarine, effect of H2O2 on suppression of these markers in H1975 cells is relatively less significant. […] The EGFR degradation is also specific in NSCLC cells having T790M mutation by using sanguinarine or H2O2.

[3] = tested on: total EGFR, EGFR (pY845) and EGFR (pY1068) in A594 cells; experiment: Western blot of EGFR markers in A594 cells; format: cell-based; details: H2O2
Source text: as §1

[4] = tested on: EGFR construct having double mutation (L858R and T790M) in HEK293 cells; experiment: Western blot of total EGFR in HEK293 cells transfected with EGFR L858R+T790M double mutation; format: cell-based
Experimental: HEK293 cells are used in this example as cell model to be transfected with different constructs of EGFR (wild-type, L858R mutation, Exon 19 deletion, L858R+T790M double mutation). In FIG. 3A, 3 μM saguinarine is added into the HEK293 transfected with different EGFR constructs.

[5] = tested on: short EGFR peptide containing the T790M mutation (LIMQL); experiment: ESI-MS of methionine oxidation in short EGFR peptide; format: biochemical; details: 10-100 μM H2O2 for 10 min
Source text: The methionine amino acid of a short EGFR peptide containing the T790M mutation could be easily oxidized in a dose-dependent manner under oxidative stress condition. […] A peptide equivalent to the amino acid sequence position from 788 to 792 of EGFR in wild-type (LITQL) and T790M mutant (LIMQL) of EGFR (Sequence acquired from Pubmed database; SEQ. ID. NO. 2/GenBank Accession number of amino acid is NP_005219) is synthesized and both of them are subject to mass spectrometry. In FIG. 4A, ESI-MS detects the standard peptide of LIMQL and oxidized form of the peptide (LIM(O)QL). They are used as standard of the MS pattern of the un-oxidized form of methionine (“M”) and the oxidized form methionine (“M(O)”) for the EGFR short peptide. FIG. 4B-G are ESI-MS results of oxidized methionine in peptide treated with different concentrations of H2O2: FIG. 4B is for H2O2 untreated sample; FIG. 4C is for sample treated with 10 μM H2O2 for 10 min; FIG. 4D is for sample treated with 20 μM H2O2 for 10 min; FIG. 4E is for sample treated with 40 μM H2O2 for 10 min; FIG. 4F is for sample treated with 80 μM H2O2 for 10 min; FIG. 4G is for sample treated with 100 μM H2O2 for 10 min. One of representative data is shown (n=3).

HCC827(EGFR^L858R) = experiment: IC50 of sanguinarine against NSCLC cell line HCC827; format: cell-based; details: Homo sapiens
Source text: (§2) Among the five cell lines, H1975 is the most sensitive cells to sanguinarine treatment, while A549 is the most resistant one.

[6] = tested on: H1650 (EGFR^Exon19 deletion); experiment: IC50 of sanguinarine against NSCLC cell line H1650; format: cell-based; details: Homo sapiens, NCI-H1650
Source text: as §2

A549 (EGFR^wild-type) = experiment: IC50 of sanguinarine against NSCLC cell line A549; format: cell-based; details: Homo sapiens
Source text: as §2

H2228 (EML4-ALK) [7] = experiment: IC50 of sanguinarine against NSCLC cell line H2228; format: cell-based; details: Homo sapiens, NCI-H2228
Source text: as §2

H1975(EGFR^L858R+T790M) = experiment: IC50 of sanguinarine against NSCLC cell line H1975; format: cell-based; details: for IC50: Homo sapiens, NCI-H1975
Source text: as §2

c1ccc2c(c1)[I+]c1ccccc1-2 [DPI]
blocking of apoptosis and degradation of EGFR induced by sanguinarine (H1975): blocks the apoptosis and the degradation of EGFR

COc1cc2ncnc(Nc3ccc(F)c(Cl)c3)c2cc1OCCCN1CCOCC1 [Gefitinib]
Gefitinib resistance (H2228 (EML4-ALK) [1]): resistance

OO [H2O2]
expression level of total EGFR and pY845 EGFR [2]: slightly reduced | level of all markers (total EGFR, pY845 EGFR, pY1068 EGFR) [3]: no significant change | total EGFR level ([4]; 200 μM H2O2): significant reduction | total EGFR level ([4]; 300 μM H2O2): more significant reduction | oxidation of methionine in short EGFR peptide [5]: oxidized by ROS in a time- and dose-dependent manner

C[n+]1cc2c3c(ccc2c2ccc4cc5c(cc4c21)OCO5)OCO3 [sanguinarine]
IC50 (HCC827(EGFR^L858R); HCC827, 24 hrs, read-out: IC50 value Treatment (24 hrs)): 1900 ± 248 nM | IC50 (HCC827(EGFR^L858R); HCC827, 48 hrs, read-out: IC50 value Treatment (48 hrs)): 1060 ± 270 nM | IC50 ([6]; H1650, 24 hrs, read-out: IC50 value Treatment (24 hrs)): 3470 ± 1310 nM | IC50 ([6]; H1650, 48 hrs, read-out: IC50 value Treatment (48 hrs)): 2640 ± 1310 nM | IC50 (A549 (EGFR^wild-type); A549, 24 hrs, read-out: IC50 value Treatment (24 hrs)): 5710 ± 1730 nM | IC50 (A549 (EGFR^wild-type); A549, 48 hrs, read-out: IC50 value Treatment (48 hrs)): 3830 ± 1110 nM | IC50 (H2228 (EML4-ALK) [7]; H2228, 24 hrs, read-out: IC50 value Treatment (24 hrs)): 3730 ± 1230 nM | IC50 (H2228 (EML4-ALK) [7]; H2228, 48 hrs, read-out: IC50 value Treatment (48 hrs)): 3080 ± 1560 nM | IC50 value in H1975 fold lower than that of A549 (H1975(EGFR^L858R+T790M); H1975 vs A549): 8 fold | IC50 value in H1975 fold lower than that of H1650 (H1975(EGFR^L858R+T790M); H1975 vs H1650): 5.1 fold | IC50 value in H1975 fold lower than that of H2228 (H1975(EGFR^L858R+T790M); H1975 vs H2228): 5.4 fold | IC50 value in H1975 fold lower than that of HCC827 (H1975(EGFR^L858R+T790M); H1975 vs HCC827): 3 fold | IC50 (H1975(EGFR^L858R+T790M); H1975, 24 hrs, read-out: IC50 value Treatment (24 hrs)): 680 ± 240 nM | IC50 (H1975(EGFR^L858R+T790M); H1975, 48 hrs, read-out: IC50 value Treatment (48 hrs)): 580 ± 140 nM
